Laboratory results from ChEMBL document CHEMBL1201862, “PubChem BioAssay data set” (2004).
Active and inactive are the calls of the source.

Key:
[1] = target: T1, Hepatocyte nuclear factor 4-alpha (Homo sapiens, UniProt P41235); format: functional, cell-based;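 also: biochemical luminescence-based dose-response counterscreen measuring inhibition of HNF4 dimerization, run alongside a screen for blockers of ABHD5–perilipin-5 interaction; split luciferase complementation of HNF4 fusion proteins in cell lysate measuring dimerization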
T1 sequence (P41235 whole entry): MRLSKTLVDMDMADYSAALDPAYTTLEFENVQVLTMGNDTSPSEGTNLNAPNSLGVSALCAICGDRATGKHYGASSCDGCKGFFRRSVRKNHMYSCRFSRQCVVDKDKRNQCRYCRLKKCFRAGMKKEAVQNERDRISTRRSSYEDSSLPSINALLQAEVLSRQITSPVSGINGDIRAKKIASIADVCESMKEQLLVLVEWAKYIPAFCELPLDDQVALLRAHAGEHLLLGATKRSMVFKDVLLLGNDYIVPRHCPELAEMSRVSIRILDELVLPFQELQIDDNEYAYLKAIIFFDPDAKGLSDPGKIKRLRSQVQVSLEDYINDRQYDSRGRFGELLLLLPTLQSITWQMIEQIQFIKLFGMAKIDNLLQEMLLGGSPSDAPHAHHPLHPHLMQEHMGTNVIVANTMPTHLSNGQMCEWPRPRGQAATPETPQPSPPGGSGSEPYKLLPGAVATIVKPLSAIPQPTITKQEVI

[2] = target: T2, Insulin-degrading enzyme (Homo sapiens, UniProt P14735); experiment: recombinant IDE activation, cell-free – biochemical, fluorescence polarization, counter-screen for IDE activator project, dose response (AID 588681)
T2 sequence (P14735 whole entry): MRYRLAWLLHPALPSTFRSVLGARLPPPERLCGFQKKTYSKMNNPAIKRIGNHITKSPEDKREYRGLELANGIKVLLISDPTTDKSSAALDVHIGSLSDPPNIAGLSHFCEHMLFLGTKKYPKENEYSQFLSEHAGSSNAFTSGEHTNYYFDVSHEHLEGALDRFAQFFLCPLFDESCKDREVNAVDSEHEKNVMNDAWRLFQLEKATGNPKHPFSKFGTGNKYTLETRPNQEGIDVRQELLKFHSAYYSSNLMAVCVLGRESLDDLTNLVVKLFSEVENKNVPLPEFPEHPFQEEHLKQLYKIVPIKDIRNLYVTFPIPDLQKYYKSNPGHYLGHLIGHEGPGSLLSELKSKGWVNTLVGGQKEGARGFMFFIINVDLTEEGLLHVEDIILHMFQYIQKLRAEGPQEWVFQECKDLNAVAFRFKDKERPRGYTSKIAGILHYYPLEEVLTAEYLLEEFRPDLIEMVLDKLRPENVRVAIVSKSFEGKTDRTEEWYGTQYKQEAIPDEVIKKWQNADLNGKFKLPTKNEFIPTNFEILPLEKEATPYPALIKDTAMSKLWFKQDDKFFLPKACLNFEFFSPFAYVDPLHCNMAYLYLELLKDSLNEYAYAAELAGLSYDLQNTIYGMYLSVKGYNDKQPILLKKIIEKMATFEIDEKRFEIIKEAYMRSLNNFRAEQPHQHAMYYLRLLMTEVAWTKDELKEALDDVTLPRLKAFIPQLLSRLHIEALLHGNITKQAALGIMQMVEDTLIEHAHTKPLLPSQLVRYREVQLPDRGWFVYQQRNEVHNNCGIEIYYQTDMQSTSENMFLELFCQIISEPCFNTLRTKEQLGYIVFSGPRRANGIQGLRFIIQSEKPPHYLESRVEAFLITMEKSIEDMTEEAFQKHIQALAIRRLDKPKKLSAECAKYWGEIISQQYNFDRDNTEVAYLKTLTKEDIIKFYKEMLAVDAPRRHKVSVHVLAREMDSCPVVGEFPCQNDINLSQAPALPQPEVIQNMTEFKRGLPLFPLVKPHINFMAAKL

[3] = target: T2, Insulin-degrading enzyme; experiment: cellular IDE activation of Abeta substrate cleavage – fluorescence polarization, HEK cells, dose response (AID 588439); format: functional, cell-based
[4] = test system: HEK293; experiment: membrane integrity loss in HEK cells – cell-based, fluorescence, cytotoxicity control for IDE activator project, dose response (AID 588440); format: functional; settings: Homo sapiens;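 also: cytotoxicity by LDH release measuring loss of membrane integrity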
[5] = test system: HEK293; experiment: optical interference in Abeta FP readout, dose response, artefact control for IDE activator project, biochemical, fluorescence polarization (AID 588442); format: functional, cell-based; settings: Homo sapiens
[6] = viability loss in HeLa cells – cytotoxicity control for MgcRacGAP inhibitor project, dose response (AID 624300); format: functional
[7] = target: T3, Rac GTPase-activating protein 1 (Homo sapiens, UniProt Q9H0H5); experiment: blockers of MgcRacGAP-driven Rac1 GTP hydrolysis – biochemical, ADP Hunter fluorescence, primary and confirmatory, confirmation (AID 624330); format: functional
T3 sequence (Q9H0H5 whole entry): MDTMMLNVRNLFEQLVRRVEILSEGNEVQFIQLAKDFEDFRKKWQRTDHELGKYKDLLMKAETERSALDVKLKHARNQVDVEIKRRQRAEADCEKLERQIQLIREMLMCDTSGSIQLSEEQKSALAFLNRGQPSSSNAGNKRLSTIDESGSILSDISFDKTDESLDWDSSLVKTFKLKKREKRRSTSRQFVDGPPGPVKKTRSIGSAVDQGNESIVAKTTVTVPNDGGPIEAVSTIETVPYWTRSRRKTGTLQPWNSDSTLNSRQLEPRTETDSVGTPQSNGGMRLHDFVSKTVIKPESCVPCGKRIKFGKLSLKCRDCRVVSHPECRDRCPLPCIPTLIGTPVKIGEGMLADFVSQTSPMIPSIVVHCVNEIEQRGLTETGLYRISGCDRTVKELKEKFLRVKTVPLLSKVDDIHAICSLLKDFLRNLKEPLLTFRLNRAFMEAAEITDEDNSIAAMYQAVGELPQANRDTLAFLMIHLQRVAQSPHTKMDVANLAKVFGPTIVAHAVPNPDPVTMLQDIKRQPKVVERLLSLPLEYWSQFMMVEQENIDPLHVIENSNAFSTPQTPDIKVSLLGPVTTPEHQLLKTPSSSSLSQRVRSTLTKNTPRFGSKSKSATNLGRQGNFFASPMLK

[8] = reduction of Shn3 3'UTR-driven luciferase in osteoblasts – cell-based, Clone20 osteoblasts, firefly luciferase, cherry-picked, dose response (AID 624132); format: functional;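 also: firefly luciferase luminescence from reporter carrying the Shn3 3'UTR in osteoblasts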
[9] = loss of viability in HepG2 cells – cell-based, CellTiter-Glo, cherry-picked, cytotoxicity control for Shn3 inhibitor project, dose response (AID 624134); format: functional
[10] = non-specific 3'UTR reporter inhibition in Clone20-Shn3RL – cell-based, Renilla luciferase, cherry-picked, counter-screen for Shn3 inhibitor project, dose response (AID 624133); format: functional
[11] = NIH-3T3 fibroblast cytotoxicity, dose response, cytotoxicity control, cell-based, fluorescence, Alamar Blue, secondary assay (AID 2327); format: functional;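 also: NIH-3T3 mouse fibroblasts cultured with fluconazole at 8 µg/mL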
[12] = fluconazole-exposed Candida albicans growth modulators – fluorescence, retest, confirmation (AID 2467); format: functional, cell-based
[13] = target: T4, Serine/threonine-protein phosphatase (Candida dubliniensis (strain CD36 / CBS 7987 / NCPF 3949 / NRRLY-17841) (Yeast), UniProt B9W6M3); experiment: blockers of CaCl2-induced CDRE-lacZ signaling – S. cerevisiae, luminescence, secondary, dose response (AID 2388); format: functional, cell-based;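 also: yeast reporter cells carrying a calcineurin-responsive lacZ construct stimulated with calcium chloride; luminescent beta-galactosidase reporter signal in whole cells rather than isolated phosphatase activity; potency for inhibition where a drop in reporter signal means calcineurin blockade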
T4 sequence (B9W6M3 whole entry): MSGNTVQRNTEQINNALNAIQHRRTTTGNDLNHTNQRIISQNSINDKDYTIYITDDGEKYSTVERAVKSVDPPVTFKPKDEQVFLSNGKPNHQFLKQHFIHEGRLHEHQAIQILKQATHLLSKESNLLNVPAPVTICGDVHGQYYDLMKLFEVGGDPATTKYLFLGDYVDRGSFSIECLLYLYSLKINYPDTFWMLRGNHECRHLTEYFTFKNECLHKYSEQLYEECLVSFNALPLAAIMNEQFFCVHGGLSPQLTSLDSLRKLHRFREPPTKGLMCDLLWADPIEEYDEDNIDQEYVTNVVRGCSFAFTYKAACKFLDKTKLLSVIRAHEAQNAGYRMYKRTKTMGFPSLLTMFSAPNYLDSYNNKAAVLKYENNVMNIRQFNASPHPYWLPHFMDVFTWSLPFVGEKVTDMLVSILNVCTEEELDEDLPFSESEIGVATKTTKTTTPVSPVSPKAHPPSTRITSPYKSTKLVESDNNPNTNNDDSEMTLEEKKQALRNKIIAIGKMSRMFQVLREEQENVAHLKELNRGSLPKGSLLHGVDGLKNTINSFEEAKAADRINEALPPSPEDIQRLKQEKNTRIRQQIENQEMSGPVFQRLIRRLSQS

[14] = target: ATP-dependent molecular chaperone HSP82 (Candida albicans (strain WO-1) (Yeast), UniProt C4YTQ8); experiment: steroid-induced GRE reporter decrease in yeast – S. cerevisiae, luminescence, Hsp90 inhibitor project, dose response (AID 2400); format: functional, cell-based;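 also: beta-galactosidase luminescence from glucocorticoid response element reporter as proxy for Hsp90 function; inhibitor potency where signal loss means Hsp90 inhibition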
ATP-dependent molecular chaperone HSP82, sequence (C4YTQ8 whole entry): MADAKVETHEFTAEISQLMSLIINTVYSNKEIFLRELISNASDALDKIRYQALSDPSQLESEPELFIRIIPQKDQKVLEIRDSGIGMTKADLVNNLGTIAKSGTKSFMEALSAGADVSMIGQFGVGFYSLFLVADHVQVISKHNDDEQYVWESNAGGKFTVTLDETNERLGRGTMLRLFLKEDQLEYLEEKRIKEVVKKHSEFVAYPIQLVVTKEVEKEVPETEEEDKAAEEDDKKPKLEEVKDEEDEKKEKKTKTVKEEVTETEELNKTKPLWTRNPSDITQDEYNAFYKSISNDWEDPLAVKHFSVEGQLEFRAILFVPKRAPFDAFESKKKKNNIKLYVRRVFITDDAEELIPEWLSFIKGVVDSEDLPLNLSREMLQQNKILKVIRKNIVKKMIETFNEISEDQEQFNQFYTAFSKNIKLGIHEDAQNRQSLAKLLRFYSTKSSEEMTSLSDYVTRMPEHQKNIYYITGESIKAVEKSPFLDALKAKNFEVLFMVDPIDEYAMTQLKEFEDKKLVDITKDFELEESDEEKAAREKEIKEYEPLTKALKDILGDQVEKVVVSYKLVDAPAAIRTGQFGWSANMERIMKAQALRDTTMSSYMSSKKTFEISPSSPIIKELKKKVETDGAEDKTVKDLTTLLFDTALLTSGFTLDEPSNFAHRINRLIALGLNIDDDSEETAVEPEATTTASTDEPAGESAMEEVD

[15] = target: T5, Heat shock factor protein 1 (Mus musculus, UniProt P38532); experiment: enhancement of HSF1-driven luciferase signal – cell-based, NIH3T3, luminescence, dose retest, confirmation (AID 435004); format: functional;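 also: stress induced by proteasome inhibitor MG132 added 30 min after compound; luciferase reporter driven by HSF1 response element in NIH3T3 cells; actives raise luminescence as potentiators of the MG132 stress response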
T5 sequence (P38532 whole entry): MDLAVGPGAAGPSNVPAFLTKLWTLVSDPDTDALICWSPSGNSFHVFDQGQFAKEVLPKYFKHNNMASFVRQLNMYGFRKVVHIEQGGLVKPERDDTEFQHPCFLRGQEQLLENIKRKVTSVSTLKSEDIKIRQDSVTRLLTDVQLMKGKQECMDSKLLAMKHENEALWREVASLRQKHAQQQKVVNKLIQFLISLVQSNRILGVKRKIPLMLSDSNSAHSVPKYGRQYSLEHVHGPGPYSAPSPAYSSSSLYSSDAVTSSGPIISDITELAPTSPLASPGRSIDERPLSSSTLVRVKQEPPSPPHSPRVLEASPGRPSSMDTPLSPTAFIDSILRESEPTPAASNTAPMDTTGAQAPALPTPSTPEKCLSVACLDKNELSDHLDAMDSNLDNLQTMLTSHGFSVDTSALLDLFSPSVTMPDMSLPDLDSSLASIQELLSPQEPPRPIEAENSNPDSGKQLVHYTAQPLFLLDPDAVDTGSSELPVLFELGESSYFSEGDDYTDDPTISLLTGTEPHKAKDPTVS

[16] = test system: INS1; experiment: INS-1E survival protection against cytokine death – cell-based, luminescence, retest, dose response (AID 449756); format: functional; settings: Rattus norvegicus;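 also: cell death triggered by IL-1 beta plus TNF-alpha plus IFN-gamma mixture; protective hits raise ATP signal compared with cytokine alone wells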
[17] = target: Melanocortin receptor 4 (Homo sapiens, UniProt P32245); format: functional, cell-based;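 also: Cell-based assay with luminescence read-out, confirmatory dose-response testing for agonist activity of biased ligands at MC4R; human U2OS cells with tagged receptor and beta-arrestin; potency of agonists that increase receptor coupling to beta-arrestin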
Melanocortin receptor 4, sequence (P32245 whole entry): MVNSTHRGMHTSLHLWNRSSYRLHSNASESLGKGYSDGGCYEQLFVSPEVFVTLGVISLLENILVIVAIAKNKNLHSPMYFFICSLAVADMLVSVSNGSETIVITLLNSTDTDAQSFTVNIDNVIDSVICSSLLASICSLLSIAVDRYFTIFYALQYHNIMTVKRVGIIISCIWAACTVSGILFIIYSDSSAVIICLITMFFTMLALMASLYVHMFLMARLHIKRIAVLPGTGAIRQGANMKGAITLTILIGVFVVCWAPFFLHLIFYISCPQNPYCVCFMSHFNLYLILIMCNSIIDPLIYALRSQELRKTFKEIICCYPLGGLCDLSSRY

[18] = Trypanosoma cruzi growth suppression in host cells – NIH3T3 host cells, beta-gal luminescence, confirmation (AID 2044); format: functional, cell-based;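 also: intracellular parasites grown in NIH/3T3 mouse fibroblasts as host cells; luminescent beta-galactosidase reporter signal from transgenic T. cruzi replicating inside host cells; inhibitors lower the luminescence signal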
[19] = NIH3T3 cell viability loss – ATP luminescence, mouse fibroblasts, counter-screen, dose response (AID 2010); format: functional, cell-based;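 also: cells exposed to compound for about 90 hours before reading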
[20] = target: T6, Ubiquitin-conjugating enzyme E2 N (Homo sapiens, UniProt P61088); format: functional;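 also: Dose-response confirmation in a TR-FRET assay detecting UBC13-driven polyubiquitin chain formation, inhibition measured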
T6 sequence (P61088 whole entry): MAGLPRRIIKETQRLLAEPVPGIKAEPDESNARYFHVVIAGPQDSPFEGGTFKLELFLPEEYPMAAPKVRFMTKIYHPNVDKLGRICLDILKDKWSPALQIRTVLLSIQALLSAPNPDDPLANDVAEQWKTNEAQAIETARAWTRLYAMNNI

CC(C)c1ccc(N2C=Nc3ccc(C(C)C)cc3C2)cc1
IC50 [1]: 22.5 µM (inactive)

O=C(NS(=O)(=O)Nc1ccccc1)C1=C(N2CCCC2)COC1=O
EC50 [2]: > 54.7 µM (inactive) | EC50 [3]: > 54.7 µM (inactive) | IC50 [4]: > 89.2 µM (inactive) | EC50 [5]: > 55.9 µM (inactive)

COc1cc(-c2nc3ccc(C)cn3c2Nc2ccc3c(c2)OCCO3)ccc1O
CC50 [6]: 100 µM (active) | IC50 [7]: 34.2 µM (active)

COc1ccc(/C=C2\Oc3cc(OCC(=O)N4CCC(C(=O)O)CC4)ccc3C2=O)c(OC)c1OC
EC50 [2]: 33 µM (inactive) | EC50 [3]: 22 µM (inactive) | IC50 [4]: > 89.2 µM (inactive) | EC50 [5]: 24 µM (inactive)

OC[C@@H]1CN(Cc2ccncc2)C[C@H](n2cnc3c(N4CCN(c5ccccc5)CC4)ncnc32)O1
AC50 [8]: 2.38 µM (active) | AC50 [9]: 3.81 µM (active) | AC50 [10]: 5.72 µM (active)

CCNc1nc(NC(C)C)nc(NC(C)(C)C)n1
EC50 [11]: > 150 µM (inconclusive) | EC50 [12]: 110 nM (active) | EC50 [13]: > 180 µM (inactive) | EC50 [14]: > 160 µM (inactive)

CC(=O)Oc1c(Cl)cc(N(C(C)=O)S(=O)(=O)c2ccccc2)c2ccccc12
EC50 [15]: > 260 µM (inactive) | AC50 [16]: 4.34 µM (active) | IC50 [1]: 10.1 µM (inactive)

O=C(CCN1C(=O)/C(=C/C=C/c2ccccc2)SC1=S)Nc1cccnc1
EC50 [17]: > 89.2 µM (inactive)

Cc1ccc(C(=O)Nc2cccc(-c3cn4ccccc4n3)c2)cc1
EC50 [11]: > 150 µM (inactive) | EC50 [12]: 628 nM (active) | EC50 [13]: > 180 µM (inactive) | EC50 [14]: > 160 µM (inactive)

CCN1CCN(CCNC(=O)c2ccc(/C=C3/Sc4ccccc4N(Cc4cccc(C)c4)C3=O)cc2)CC1
EC50 [18]: 1.29 µM (active) | EC50 [19]: 8.45 µM (active) | IC50 [20]: > 20 µM (inactive) | EC50 [2]: > 54.7 µM (inactive) | EC50 [3]: 23.2 µM (inactive) | IC50 [4]: 20.2 µM (inactive) | EC50 [5]: > 54.7 µM (inactive)

CCOC(=O)C(/C=N/c1ccc2c(c1)nnn2-c1ccc(Cl)cc1)=C(\O)OCC
EC50 [17]: > 89.2 µM (inactive)

CC1CN(S(=O)(=O)c2ccc(C(=O)Nc3nncs3)cc2)CC(C)O1 (stereo not drawn)
EC50 [2]: > 54.7 µM (inactive) | EC50 [3]: > 54.7 µM (inactive) | IC50 [4]: > 89.2 µM (inactive) | EC50 [5]: > 54.7 µM (inactive)
